The values below come from US20100105641A1, “Oral Contraceptive Spray” (priority 2006, published 2010).

The procedure of data set [1]:
Solutions were prepared essentially according to the procedure as described in Example 1. The solubility of each one of the active ingredients desogestrel, 3-β-hydroxydesogestrel, 3-keto desogestrel and ethinyl estradiol in these solutions was tested.

For data set [2] the following is noted: human, in vivo. The method, then:
Sixteen healthy female subjects were treated with 0.1 ml of the oral spray as described in Example 1 or with Marvelon® tablets (150 μg desogestrel, 30 μg ethinyl estradiol) in a cross over design. The spray was administered sublingually. Marvelon® was ingested. Serum concentration versus time profiles were obtained for etonogestrel and plasma concentration versus time profiles were obtained for ethinyl estradiol. FIGS. 2, 3, 4 and 5 show the average values of the serum/plasma concentrations versus time profiles.
This leads to the conclusion that a lower dose of either etonogestrel, or ethinyl estradiol, or both is possible for oral mucosal administration.

Data set [3] can be described thus: Cross-over study in sixteen healthy female subjects: sublingual oral spray (75 μg etonogestrel) vs ingested Cerazette tablets, serum concentration versus time profiles. The data set is classed as in vivo, human. The conditions noted are these: FIGS. 6 and 7; 75 μg etonogestrel spray vs Cerazette tablet. The method, then: Sixteen healthy female subjects were treated with 0.1 ml of oral spray comprising the liquid as depicted in table 6 to administer 75 μg etonogestrel, or with Cerazette® tablets (75 μg desogestrel) in a cross over design. The spray has been administered sublingually. Cerazette® has been ingested. Serum concentration versus time profiles were obtained for etonogestrel.
This leads to the conclusion that a lower dose of either etonogestrel is possible for oral mucosal administration to achieve a similar pharmacological effect.

The conditions of data set [4]: exposure of etonogestrel after oral ingestion as its prodrug desogestrel; cited from earlier work.

For `C#C[C@]1(O)CC[C@H]2[C@@H]3CCC4=C[C@@H](O)CC[C@@H]4[C@H]3C(=C)C[C@@]21CC` [3-β-Hydroxy-desogestrel, 3-β-hydroxydesogestrel], in data set [1], the “Solubility in Liquid 1” value is given as “≧8.8 mg/mL”, the “Solubility in Liquid 2” value is reported as “≧7.0 mg/mL”, the “Solubility in Liquid 3” value is “≧6.1 mg/mL” and the “Solubility in Liquid 4” value is “≧6.9 mg/mL”. Further, the “Solubility in Liquid 5” value in data set [1] was “≧8.7 mg/mL”.
Regarding `C#C[C@]1(O)CC[C@H]2[C@@H]3CCC4=CC(=O)CC[C@@H]4[C@H]3C(=C)C[C@@]21CC` [Etonogestrel, 13-ethyl-11methylene-17β-hydroxy-18,19-dinor-17α-pregnen-3-one], the “levels of etonogestrel in serum, oral mucosal administration compared to oral ingestion of equivalent amount of desogestrel using a tablet” value in data set [2] is “much higher levels”. Also, the “levels of etonogestrel in serum, oral mucosal administration compared to oral ingestion of an equivalent amount of desogestrel using a tablet” value in data set [3] was “much higher levels”. Moreover, in data set [4], the oral bioavailability entry is “about 80%”.
On to `C#C[C@]1(O)CC[C@H]2[C@@H]3CCc4cc(O)ccc4[C@H]3CC[C@@]21C` [Ethinyl Estradiol, ethinyl estradiol], for which the “levels of ethinyl estradiol in plasma, oral mucosal administration compared to oral ingestion of equivalent amount using a tablet” value in data set [2] was “much higher levels”.
